Reference: PMC5339874, “Fluorene-9-bisphenol is anti-oestrogenic and may cause adverse pregnancy outcomes in mice” (Nature Communications, 2017)

Legend:
CD-1 mice = assay: Uterotrophic assay, 3 days beginning on PND 21; assay type: in vivo; conditions: combined with 400 μg kg^−1 bw d^−1 E2; 250 and 500 mg kg^−1 d^−1 groups; P<0.01
Procedure: […] […] Ten mice per group were used for the assays. Error bars indicate the s.d.'s from the average. *P<0.05 compared with the corresponding control. **P<0.01 compared with the corresponding control. Significance was tested by Fisher's LSD test.

[1] = tested on: human choriocarcinoma JEG-3 cells; assay: WST-1 cell proliferation assay (cytotoxicity); assay type: cell-based; conditions: from 1.0 × 10^−6 M to lower concentrations; 24 h
Procedure: Dual-luciferase reporter assays were carried out primarily according to the method described in a previous study. In short, full-length sequences of human oestrogen receptor α and β were amplified by RT-PCR using mRNA from MCF-7 (Supplementary Table 3), and inserted into a pSVSPORT1 (Invitrogen); the resulting constructs were termed pSVhERα and pSVhERβ. A reporter plasmid containing ERE was constructed by inserting four tandem repeats of an ERE of Xenopus laevis vitellogenin A2 into a pGL4.23 vector (Promega), and was termed pGL4-ERE-luc. All of the plasmids constructed were confirmed by sequence analysis. […] The assays were performed in quadruplicate, and the results were expressed as the fold induction of the control after normalization against Renilla luciferase activity. Sigmoidal dose-effect curves were calculated using the GraphPad Prism 4 software. The IC50 values were calculated on the basis of the sigmoidal dose-effect curves. […] After another 24 h, 20 μl of 5 mM WST-1 with 0.2 mM 1-Methoxy-5-methylphenazinium methylsulfate was added for 4 h before the absorbance at 490 nm was measured with a microplate reader (iMark, BioRad). […]
Cell viability was determined using the cell proliferation reagent WST-1 (DOJINDO, Mashiki, Japan). […]
1-Methoxy-5-methylphenazinium methylsulfate was added for four hours before the absorbance at 490 nm was measured with a microplate reader (iMark, BioRad). […]

Oc1ccc(C2(c3ccc(O)cc3)c3ccccc3-c3ccccc32)cc1 [BHPF, 9,9-bis(4-hydroxyphenyl)-fluorene]
effect on uterotrophic effect of E2 (CD-1 mice): inhibited the uterotrophic effect of E2 | cytotoxicity [1]: no obvious cytotoxicity
